≈ marks a conversion by molar mass, not a printed value. Like-named read-outs stand apart in the source and are kept apart here.
Key:
[1] = tested on: mice challenged with lipopolysaccharide (LPS); assay: LPS induced lung neutrophilia model, BALF cell counts (Example 2); conditions: 4 h post LPS
[2] = tested on: mice challenged with lipopolysaccharide (LPS); assay: LPS induced lung neutrophilia model, BALF cell counts 4 h post LPS (Example 1)
HEp2 cells = assay: cell viability of uninfected HEp2 cells (XTT); conditions: Example 8
MRC-5 cells = conditions: for cytotoxic effect on the viability of the cell control: Example 6
in vitro [3] = conditions: dog
[4] = tested on: TNF-α, IL-6, IL-1β, GM-CSF, CXCL1, CXCL2, CCL2, MMP9 in lung homogenate; assay: LPS induced lung neutrophilia model, marker concentrations in lung homogenate (Example 2)
[5] = tested on: human respiratory syncytial virus (strain RSVA2); conditions: Example 8
[6] = tested on: influenza virus (strain A/PR/8/34); assay: inhibition of virus-induced CPE, influenza virus in MDCK cells; type: cell-based; conditions: unidentified influenza virus, PR/8, MDCK, read-out: maximum inhibition of the influenza mediated CPE
[7] = tested on: Measles virus (strain Edmonston); assay: microbe, parasite or virus in culture; type: cell-based
[8] = cell viability of uninfected Huh7 cells; conditions: human
[9] = tested on: human respiratory syncytial virus (strain RSVA2); assay: inhibition of virus-induced CPE, RSVA2 in HEp2 cells (XTT); conditions: human respiratory syncytial virus
[10] = tested on: Dengue virus (strain DENV2New Guinea); assay: inhibition of virus-induced CPE, Dengue virus in Huh7 cells; type: cell-based; conditions: Huh-7, 4 h pre-incubation
Method: The Dengue virus strain DENV2New Guinea was obtained from ATCC (VR-1584) and was grown in Rhesus monkey kidney cells for the production of stock virus pools.
(§1) Cell viability determination as well as EC50 and TC50 calculations were performed as described in Examples 6 and 8.

[11] = tested on: influenza A/Puerto Rico/8/34 (H1N1); type: in vivo, BALB/c mice
in vitro [12] = conditions: human
[13] = tested on: Zika virus (strain ZIKVPRVABC59); assay: inhibition of virus-induced CPE, Zika virus in Huh7 cells; type: cell-based; conditions: Huh-7, 4 hour pretreatment, MOI 0.001, Lefamulin as acetate
Method: The Zika virus strain PRVABC59 obtained from ATCC (catalog VR-1843) […] was grown in Rhesus monkey kidney cells for the production of stock virus pools.
as §1

[14] = cell viability of uninfected HeLa cells; conditions: human
[15] = tested on: alpha coronavirus 229E (HCoV-229E); assay: inhibition of virus-induced CPE, CoV229E in MRC-5 cells (XTT); type: cell-based; conditions: for EC50: Human coronavirus 229E, MOI 0.001, read-out: EC50
Method: The antiviral compound Remdesivir served as positive control.
Lefamulin (as acetate) was evaluated using different treatment conditions of 4 h, 1 h or 0 h incubation prior to virus addition and addition 1 h after infection For this particular set of experiments, coronavirus was diluted 1:200 in assay medium and added at 100 μL/well to achieve approximately 90% cell killing in the untreated virus control wells (MOI of 0.001).

[16] = tested on: human rhinovirus strain HRV16 strain 11757; assay: inhibition of virus-induced CPE, human rhinovirus in H1-HeLa cells; type: cell-based; conditions: Human rhinovirus sp., 4 hour pretreatment, MOI 0.0005, Lefamulin as acetate
Method: as §1

Huh7 cells = assay: cell viability of uninfected Huh7 cells; conditions: Example 12 (Dengue assay)
HeLa cells = assay: cell viability of uninfected HeLa cells; conditions: Example 11
[17] = Lefamulin 35, 70 and 140 mg/kg SC half an hour prior to IN LPS, vs LPS challenge (p<0.05)
[18] = 10, 30, or 100 mg/kg SC pre-treatment
[19] = 10, 30, or 100 mg/kg SC pre-treatment, 4 h post LPS
[20] = high dose: 105 mg/kg/day SC in three injections until day 3, then 70 mg/kg twice daily
[21] = high dose, Day 6, vs vehicle treated control

C=C[C@]1(C)C[C@@H](OC(=O)CS[C@@H]2CC[C@@H](N)C[C@H]2O)[C@]2(C)C(C)CC[C@]3(CCC(=O)[C@H]32)[C@@H](C)[C@@H]1O (stereo partly drawn) [Lefamulin, 14-O-{[(1R, 2R, 4R)-4-amino-2-hydroxy-cyclohexylsulfanyl]-acetyl}-mutilin]
total cell counts in BALF, significance of change ([1]; 100 mg/kg SC, p<0.05): statistically significant
total cell counts in BALF ([1]; 10, 30, or 100 mg/kg SC 30 min before LPS): reduced dose-dependently
lymphocyte cell counts in BALF ([1]; 10, 30 and 100 mg/kg SC): not significantly affected
macrophage cell counts in BALF ([1]; 10, 30 and 100 mg/kg SC): not significantly affected
neutrophil cells in BALF ([1]; 10, 30 and 100 mg/kg SC): dose-dependent and significant reduction
neutrophil cell count in BALF [2, 17]: statistically significant reduction
total cell count in BALF [2, 17]: statistically significant reduction
cell influx (BALF) ([2]; highest dose of 140 mg/kg SC): Almost complete impairment
cytotoxic effect on the viability of the cell control (HEp2 cells; 10 μM and 50 μM): no cytotoxic effect
cytotoxic effect on the viability of the cell control (HEp2 cells; 100 μM): cytotoxic effect
cytotoxic effect on the viability of the cell control (MRC-5 cells; 10 μM): no cytotoxic effect
cytotoxic effect on the viability of the cell control (MRC-5 cells; 50 μM): cytotoxic effect
CC50 (MRC-5 cells; human, 6 days): > 50 µM
CC50 (in vitro [3]): 23.8 µM
MMP9 concentrations in lung homogenate ([4]; 10 mg/kg SC): did not alter
reduction of MMP9 levels in lung homogenate ([4]; 30 mg/kg SC): 26%
reduction of MMP9 levels in lung homogenate ([4]; 100 mg/kg SC): 53%
reduction of IL-1β level in lung homogenate ([4]; 100 mg/kg SC pre-treatment): 24%
CXCL1 level in lung homogenate [4, 18]: significantly reduced
CXCL2 level in lung homogenate [4, 18]: significantly reduced
reduction of IL-6 level in lung homogenate [4, 19]: ≥ 50%
reduction of TNF-α level in lung homogenate [4, 19]: ≥ 50%
GM-CSF in lung homogenate ([4]; all doses tested (10, 30, 100 mg/kg SC)): almost completely inhibited
LPS-induced CCL2 increase in the lung homogenate ([4]; all investigated doses (10, 30, 100 mg/kg SC), Valnemulin particularly at 10 and 30 mg/kg): completely inhibited
reduction of viral CPE ([5]; 10 μM): 92.17%
reduction of viral CPE ([5]; 50 μM): 100%
inhibition at 5 µM [6]: 18.4%
EC50 ([7]; Measles morbillivirus, HeLa): 0.89 µM
CC50 at 6 days ([8]; TC50, Example 12 (Dengue assay)): 23.3 µM
CC50 at 6 days ([8]; TC50, Example 13 (Zika assay)): 23.4 µM
EC50 ([9]; HEp-2, Example 8, HEp2 cells, 4 h incubation prior to virus, MOI 0.001, 6 days post-infection, Lefamulin as acetate, Tiamulin as fumarate): 5.34 µM
EC50 ([9]; HEp-2, Example 9, MOI 0.0004): 2.34 µM
EC50 ([9]; HEp-2, Example 9, MOI 0.0008): 28.7 µM
EC50 ([9]; HEp-2, Example 9, MOI 0.001): 32.3 µM
EC50 ([9]; HEp-2, Example 9, MOI 0.003): > 63.2 µM
EC50 ([10]; MOI 0.001, Lefamulin as acetate): 6.79 µM
B cells (BALF) ([11]; Day 6): reduction was only significant at the highest dose
infiltration of CD4 cells in the lung ([11]; Day 6, both doses tested): decreased
infiltration of CD8 cells in the lung ([11]; Day 6, both doses tested): decreased
infiltration of NK cells in the lung ([11]; Day 6, both doses tested): decreased
neutrophils infiltration (BALF) ([11]; Day 6, both doses tested): significantly decreased
total immune cell infiltration in the lung (BALF flow cytometry) ([11]; Day 6, both doses tested, p<0.05): significantly decreased
inflammatory monocyte infiltration in the lung ([11]; Day 6, higher dose): significantly reduced
lung viral titres (TCID50 on MDCK cells) ([11]; Lefamulin at both doses, Oseltamivir positive control, Day 3 and Day 6, vs vehicle treated control): reduced
bodyweight ([11]; at the investigated doses (low and high dose SC)): did not have a significant effect
clinical scores compared to vehicle [11, 20]: increase
survival compared to vehicle [11, 20]: decrease
alveolar inflammation (histopathology) [11, 21]: significant reduction
bronchial degeneration (histopathology) [11, 21]: significant reduction
overall histopathology score [11, 21]: significant reduction
macroscopically evaluated lung consolidation ([11]; low dose: 35 mg/kg SC twice daily, Day 6): significant improvement
survival until day 6 ([11]; lower dose: 35 mg/kg SC twice daily, Day -1 to Day 6): 90%
CC50 (in vitro [12]): 24.1 µM
EC50 [13]: 2.78 µM
CC50 at 6 days [14]: 72.7 µM
reduction of viral CPE ([15]; 10 µM): 91.82%
reduction of viral CPE ([15]; 1 h, 50 µM): 86.83%
EC50 ([15]; MRC5, 1 h, Example 7, 1 h post-infection): 15.1 µM
EC50 ([15]; MRC5, Example 6, MRC-5 cells, 4 h incubation prior to virus, 6 days post-infection, Lefamulin as acetate, Tiamulin as fumarate): 3.87 µM
EC50 ([15]; MRC5, Example 7, 0 h pretreatment): 3.08 µM
EC50 ([15]; MRC5, Example 7, 1 h pretreatment): 2.16 µM
EC50 ([15]; MRC5, Example 7, 4 h pretreatment): 2.18 µM
cytotoxicity (MDCK cells; 50 μM): cytotoxicity was observed
concentrations cytotoxic to MDCK cells (MDCK cells; Example 15): greater than 23 μM
EC50 [16]: 9.34 µM

NC(=O)c1ncn([C@@H]2O[C@H](CO)[C@@H](O)[C@H]2O)n1 [Ribavirin, reference compound]
EC50 ([7]; HeLa cells, 4 h pre-incubation, MOI 0.008): 1.88 µg/mL
TC50 (Huh7 cells): 48.5 µg/mL (≈ 199 µM)
EC50 ([10]; MOI 0.001): 4.73 µg/mL
TC50 (HeLa cells): 21.6 µg/mL (≈ 88.4 µM)

Reference: patent publication US20230174472A1, “THERAPEUTIC USE OF PLEUROMUTILINS” (priority 2020, published 2023)
